Assay [1] has as its system rheumatoid synovial cells. Particulars: upon treatment; cited from earlier work.
Assay [2] has as its system human hepatocytes. Kind of assay: IL-11 stimulation in the presence of DMSO or U0126, western blot. The assay is classed as cell-based. As to conditions: IL-11 24 hours; U0126 10 μM. Here is the method: FIG. 22. Western blot image showing the levels of p-ERK, ERK, p-P90RSK, P90RSK, p-LKB1, LKB1, p-AMPK, AMPK, p-mTOR, mTOR, p-p70S6K, p70S6K, p-S6RP, S6RP in primary human hepatocytes that are unstimulated (BL+DMSO) or stimulated for 24 hours with IL11 in the presence DMSO or U0126 (10 μM).
(§1) Primary human hepatic stellate cells and human hepatocytes were stimulated for 24 hours with IL-11 in the presence DMSO or U0126. As discussed in Example 4.4, the inventors observed that IL-11 treatment stimulates p-mTOR, p-70S6K and p-S6RP. In line with the inventors' hypothesis, administration of U0126 to IL-11-stimulated cells prevents ERK-mediated inactivation of LKB1/AMPK that stops IL11-induced mTORC1/P70S6K activation (FIG. 21 and FIG. 22, respectively).
(In general: In western blotting, separated proteins are transferred to a membrane and probed.)

Assay [3] concerns Primary human hepatic stellate cells. The assay is described as above. The assay is classed as cell-based. As to conditions: IL-11 24 hours; U0126 10 μM. Here is the method: FIG. 21. Western blot image showing the levels of p-ERK, ERK, p-P90RSK, P90RSK, p-LKB1, LKB1, p-AMPK, AMPK, p-mTOR, mTOR, p-p70S6K, p70S6K, p-S6RP, S6RP, SMA, and GAPDH in primary human hepatic stellate cells that are unstimulated (BL+DMSO) or stimulated for 24 hours with IL11 in the presence DMSO or U0126 (10 μM).
as §1

For assay [4], the system named is Primary human cardiac fibroblasts. Kind of assay: IL-11-stimulated fibroblasts with Rapamycin, Wortmannin or U0126, western blot. The assay is classed as cell-based. As to conditions: IL11 10 ng/ml 24 hours; Rapamycin 10 nM, Wortmannin 1 μM, U0126 10 μM. The method, then:
FIG. 18. Western blot image showing the levels of p-LKB1, LKB1, p-AMPK, AMPK in primary human cardiac fibroblasts that are unstimulated (BL+DMSO) or stimulated with IL11 for 24 hours in the presence of either DMSO, Rapamycin, Wortmannin, or U0126. IL11(10 ng/ml), Rapamycin (10 nM), Wortmannin (1 μM), U0126 (10 μM).
Primary human cardiac fibroblasts were stimulated with IL-11 for 24 hours in the presence of either DMSO, Rapamycin (mTOR inhibitor), Wortmannin (phosphoinositide 3-kinases (PI3K) inhibitor), or U0126 (MEK1/2 inhibitor) and the levels of p-LKB1 and p-AMPK were measured by western blot (FIG. 18).

Turning to “interferon-gamma: interferon-gamma (IFNγ)”, in assay [1], the “expression of IL-11” value is “reduction”.
For the compound `N#CC(=C(/N)Sc1ccccc1N)/C(C#N)=C(\N)Sc1ccccc1N` [U0126], in assay [2], the “ERK-mediated inactivation of LKB1/AMPK” value is listed as “prevents” and the “IL11-induced mTORC1/P70S6K activation” value is reported as “stops”. In assay [3], the “ERK-mediated inactivation of LKB1/AMPK” value is on record as “prevents” and the “IL11-induced mTORC1/P70S6K activation” value was “stops”. In assay [4], the “level of p-AMPK” value is “increases” and the “level of p-LKB1” value is “decreases”.
Turning to `COc1ccc2c(c1)c(CC(=O)O)c(C)n2C(=O)c1ccc(Cl)cc1` [indomethacin, reference compound], the “expression of IL-11” value in assay [1] is on record as “reduction”.
